# Data taken from patent publication US7915291B2, “Hepatitis C virus inhibitors” (Bristol-Myers Squibb Company, priority 2002, dated 2011).
# Where two headings read alike, the source gives them in different places.
# Legend:
# [1] = molecular target: HCV NS3/4A protease complex, BMS strain (UniProt P27958, C1454S/C1711G, species not given/STRAIN_BMS); assay: Recombinant HCV NS3/4A protease complex FRET peptide assay (BMS strain); type: biochemical, HCV genotype 1a
# Outline: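 Recombinant BMS-strain NS3/4A (His-tagged NS4A with three-lysine tail, E. coli) at 2-3 nM preincubated 1 min with compound, then 2 μM ester-linked NS4A/NS4B-based FRET peptide added. Fluorescence followed in real time ~15 min at 25° C. Percent inhibition from slope of linear fluorescence change versus no-compound control.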
# [2] = test system: HCV replicon in Huh7 cells; assay: HCV replicon cell-based assay; design: species or system HCV strain 1B; details: Hepatitis C virus
# [3] = NS3/4A BMS strain; read-out: IC50 range
# [4] = Huh-7, HCV replicon, Huh7 cells, read-out: EC50 range
# [5] = read-out: IC50 range; NS3/4A BMS strain
SMILES,"IC50 [1, 3] [µM]","EC50 [2, 4] [µM]","IC50 [1, 5] [µM]","EC50 ([2]; Huh-7, read-out: EC50 range) [µM]"
C=C[C@@H]1C[C@]1(NC(=O)[C@@H]1C[C@@H](Oc2nccc3cc(OC)ccc23)CN1C(=O)[C@@H](NC(=O)OC1(C)CCCC1)C(C)(C)C)C(=O)NS(=O)(=O)C1CCC1 [Compound 384],< 0.1,< 0.1,–,–
C=C[C@@H]1C[C@]1(NC(=O)[C@@H]1C[C@@H](Oc2nccc3ccccc23)CN1C(=O)[C@@H](NC(=O)Oc1ccc(C)cc1)C(C)(C)C)C(=O)NS(=O)(=O)C1CC1 [Compound 120],< 0.1,0.1 to 1,–,–
"C=CC1C[C@]1(NC(=O)[C@@H]1C[C@@H](Oc2nc3ccoc3c3ccccc23)CN1C(=O)[C@@H](NC(=O)OC(C)(C)C)C(C)(C)C)C(=O)NS(=O)(=O)C1CC1 (stereo partly drawn) [Compound 220, BOCNH-P3(L-t-BuGly)-P2[(4R)-(1-oxa-4-aza-cyclopenta[α]naphthalen-5-yloxy)-S-proline]-P1(1R,2S VinylAcca)-CONHSO2Cyclopropane]",< 0.1,< 0.1,–,–
C=C[C@@H]1C[C@]1(NC(=O)[C@@H]1C[C@@H](Oc2ccnc(-c3cccn3C)c2)CN1C(=O)[C@@H](NC(=O)OC(C)(C)C)C(C)(C)C)C(=O)NS(=O)(=O)C1CC1 [Compound 434],< 0.1,0.1 to 1,–,–
C=C[C@@H]1C[C@]1(NC(=O)[C@@H]1C[C@@H](Oc2ccnc(-c3ccoc3)c2)CN1C(=O)[C@@H](NC(=O)OC1CCCC1)C(C)(C)C)C(=O)NS(=O)(=O)C1CC1 [Compound 426],< 0.1,0.1 to 1,–,–
C=C[C@@H]1C[C@]1(NC(=O)[C@@H]1C[C@@H](Oc2nccc3cc(OC)ccc23)CN1C(=O)[C@@H](NC(=O)OC(C)(C)C)[C@@H](C)OC)C(=O)NS(=O)(=O)C1CC1 [Compound 92],< 0.1,< 0.1,–,–
C=C[C@@H]1C[C@]1(NC(=O)[C@@H]1C[C@@H](Oc2cc(-c3ccccc3)nc(-c3ccccc3)c2)CN1C(=O)[C@@H](NC(=O)OC(C)(C)C)C(C)(C)C)C(=O)NS(=O)(=O)C1CC1 [Compound 415],< 0.1,< 0.1,–,–
C=C[C@@H]1C[C@]1(NC(=O)[C@@H]1C[C@@H](Oc2nccc3cc(OC)ccc23)CN1C(=O)[C@@H](NC(=O)OC(C)(C)C)[C@H](C)OCC)C(=O)NS(=O)(=O)C1CC1 [Compound 96],–,< 0.1,< 0.1,–
C=C[C@@H]1C[C@]1(NC(=O)[C@@H]1C[C@@H](Oc2cc(-c3ccccc3OC)nc3c(C)noc23)CN1C(=O)[C@@H](NC(=O)OC(C)(C)C)C(C)(C)C)C(=O)NS(=O)(=O)C1CC1 [Compound 6],0.1 to 1,0.1 to 1,–,–
C=C[C@@H]1C[C@]1(NC(=O)[C@@H]1C[C@@H](Oc2nccc3c(OC)cccc23)CN1C(=O)[C@@H](NC(=O)OC(C)(C)C)C(C)(C)C)C(=O)NS(=O)(=O)C1CC1 [Compound 253],< 0.1,< 0.1,–,–
C=C[C@@H]1C[C@]1(NC(=O)[C@@H]1CC(Oc2nccc3cc(OC)ccc23)CN1C(=O)[C@@H](NC(=O)OC(C)(C)C)[C@@H](C)O)C(=O)NS(=O)(=O)C1CC1 (stereo partly drawn) [Compound 91],< 0.1,0.1 to 1,–,–
C=C[C@@H]1C[C@]1(NC(=O)[C@@H]1C[C@@H](Oc2nccc3cc(OC)ccc23)CN1C(=O)[C@@H](NC(=O)OC(C)(C)C)[C@H](C)OC(C)(C)C)C(=O)NS(=O)(=O)C1CC1 [Compound 97],< 0.1,< 0.1,–,–
C=C[C@@H]1C[C@]1(NC(=O)[C@@H]1C[C@@H](Oc2ccc3c(OC)cnc(Cl)c3c2)CN1C(=O)[C@@H](NC(=O)OC(C)(C)C)C(C)(C)C)C(=O)NS(=O)(=O)C1CC1 [Compound 283],< 0.1,0.1 to 1,–,–
C=C[C@@H]1C[C@]1(NC(=O)[C@@H]1C[C@@H](Oc2cc(-c3cccc(OC)c3)nc3c(C)noc23)CN1C(=O)[C@@H](NC(=O)OC(C)(C)C)C(C)(C)C)C(=O)NS(=O)(=O)C1CC1 [Compound 5],< 0.1,< 0.1,–,–
C=C[C@@H]1C[C@]1(NC(=O)[C@@H]1C[C@@H](Oc2nccc3cc(OC)ccc23)CN1C(=O)[C@@H](NC(=O)OCC(C)(C)C)C(C)(C)C)C(=O)NS(=O)(=O)C1CC1 [Compound 18],< 0.1,< 0.1,–,–
"C=CC1C[C@]1(NC(=O)[C@@H]1C[C@@H](Oc2nnc(OCC)c3ccccc23)CN1C(=O)[C@@H](NC(=O)OC(C)(C)C)C(C)(C)C)C(=O)NS(=O)(=O)C1CC1 (stereo partly drawn) [Compound 200, BOCNH-P3(L-t-BuGly)-P2-[(4R)-(4-ethoxyphthalazine-1-oxo)-S-proline]-P1(1R,2S VinylAcca)-CONHSO2Cyclopropane]",< 0.1,< 0.1,–,–
C=CC1C[C@]1(NC(=O)[C@@H]1C[C@@H](Oc2nsc3ccccc23)CN1C(=O)[C@@H](NC(=O)OC(C)(C)C)C(C)(C)C)C(=O)NS(=O)(=O)C1CC1 (stereo partly drawn) [Compound 324],< 0.1,0.1 to 1,–,–
C=C[C@@H]1C[C@]1(NC(=O)[C@@H]1C[C@@H](Oc2nccc3cc(OC)ccc23)CN1C(=O)[C@@H](NC(=O)OC(C)(C)C)[C@H](C)OC)C(=O)NS(=O)(=O)C1CC1 [Compound 94],< 0.1,< 0.1,–,–

SMILES,"IC50 [1, 3] [µM]","EC50 [2, 4] [µM]","IC50 [1, 5] [µM]","EC50 ([2]; Huh-7, read-out: EC50 range) [µM]"
C=CC1C[C@]1(NC(=O)[C@@H]1C[C@@H](COc2cccc(Br)c2)CN1C(=O)[C@@H](NC(=O)OC)C(C)(C)C)C(=O)NS(=O)(=O)C1CC1 (stereo partly drawn) [Compound 345],1 to 10,10 to 100,–,–
C=C[C@@H]1C[C@]1(NC(=O)[C@@H]1C[C@@H](Oc2nccc3ccccc23)CN1C(=O)[C@@H](NC(=O)Oc1ccc(F)cc1)C(C)(C)C)C(=O)NS(=O)(=O)C1CC1 [Compound 122],< 0.1,0.1 to 1,–,–
C=C[C@@H]1C[C@]1(NC(=O)[C@@H]1C[C@@H](Oc2nc(-c3ccoc3)cc3ccccc23)CN1C(=O)[C@@H](NC(=O)OC(C)(C)C)C(C)(C)C)C(=O)NS(=O)(=O)C1CC1 [Compound 30],< 0.1,< 0.1,–,–
C=C[C@@H]1C[C@]1(NC(=O)[C@@H]1C[C@@H](Oc2nccc3cc(OC)ccc23)CN1C(=O)[C@@H](NC(=O)OC(C)(C)C)[C@H](C)O)C(=O)NS(=O)(=O)C1CC1 [Compound 95],< 0.1,0.1 to 1,–,–
C=CC1C[C@]1(NC(=O)[C@@H]1C[C@@H](Oc2nccc(-c3ccccc3)n2)CN1C(=O)[C@@H](NC(=O)OC)C(C)(C)C)C(=O)NS(=O)(=O)C1CC1 (stereo partly drawn) [Compound 335],< 0.1,1 to 10,–,–
C=C[C@@H]1C[C@]1(NC(=O)[C@@H]1C[C@@H](Oc2nccc3ccccc23)CN1C(=O)[C@@H](NC(=O)OCCCCCC)C(C)(C)C)C(=O)NS(=O)(=O)C1CC1 [Compound 129],0.1 to 1,0.1 to 1,–,–
C=C[C@@H]1C[C@]1(NC(=O)[C@@H]1C[C@@H](Oc2nccc3cc(-n4cccn4)ccc23)CN1C(=O)[C@@H](NC(=O)OC(C)(C)C)C(C)(C)C)C(=O)NS(=O)(=O)C1CC1 [Compound 21],< 0.1,< 0.1,–,–
"C=CC1C[C@]1(NC(=O)[C@@H]1C[C@@H](Oc2cc(C(F)(F)F)nc3c(OC(F)(F)F)cccc23)CN1C(=O)[C@@H](NC(=O)OC(C)(C)C)C(C)(C)C)C(=O)NS(=O)(=O)C1CC1 (stereo partly drawn) [Compound 182, BOCNH-P3(L-tert-BuGly)-P2[(4R)-(2-trifluoromethyl, 8-trifluoromethoxy quinolin-4-oxo)-S-proline]-P1(1R,2S Vinyl Acca)-CONHSO2-Cyclopropane]",< 0.1,0.1 to 1,–,–
C=C[C@@H]1C[C@]1(NC(=O)[C@@H]1C[C@@H](Oc2ccnc(-c3ccc(F)cc3)c2)CN1C(=O)[C@@H](NC(=O)OC1CCCC1)C(C)(C)C)C(=O)NS(=O)(=O)C1CC1 [Compound 427],< 0.1,0.1 to 1,–,–
CC[C@@H]1C[C@]1(NC(=O)[C@@H]1C[C@@H](Oc2nccc3cccc(C)c23)CN1C(=O)[C@@H](NC(=O)OC(C)(C)C)C(C)(C)C)C(=O)NS(=O)(=O)C1CC1 [Compound 297],0.1 to 1,1 to 10,–,–
"C=CC1C[C@]1(NC(=O)[C@@H]1C[C@@H](Oc2nc3c(c4ccccc24)OCOC3)CN1C(=O)[C@@H](NC(=O)OC(C)(C)C)C(C)(C)C)C(=O)NS(=O)(=O)C1CC1 (stereo partly drawn) [Compound 227, BOCNH-P3(L-t-BuGly)-P2[(4R)-(1,3-oxazino[5,6-c]isoquinoline-6-oxo)-S-proline]-P1(1R,2S VinylAcca)-CONHSO2Cyclopropane]",< 0.1,< 0.1,–,–
C=C[C@@H]1C[C@]1(NC(=O)[C@@H]1C[C@@H](Oc2nccc3cc(OC)ccc23)CN1C(=O)[C@@H](NC(=O)OC)C(C)(C)C)C(=O)NS(=O)(=O)C1CC1 [Compound 16],< 0.1,0.1 to 1,–,–
CC[C@@H]1C[C@]1(NC(=O)[C@@H]1C[C@@H](Oc2nccc3cc(OC)ccc23)CN1C(=O)[C@@H](NC(=O)OC(C)(C)C)C(C)(C)C)C(=O)NS(=O)(=O)C(C)C [Compound 15],0.1 to 1,1 to 10,–,–
C=C[C@@H]1C[C@]1(NC(=O)[C@@H]1C[C@@H](Oc2ccc3ccccc3n2)CN1C(=O)[C@@H](NC(=O)OC(C)(C)C)C(C)(C)C)C(=O)NS(=O)(=O)C1CC1 [Compound 7],< 0.1,0.1 to 1,–,–
C=C[C@@H]1C[C@]1(NC(=O)[C@@H]1C[C@@H](Oc2nc(-c3ccccc3)cc3cc(OC)ccc23)CN1C(=O)[C@@H](NC(=O)OC(C)(C)C)C(C)(C)C)C(=O)NS(=O)(=O)C1CC1 [Compound 36],–,–,< 0.1,< 0.1
C=C[C@@H]1C[C@]1(NC(=O)[C@@H]1C[C@@H](Oc2nccc3cc(OC)ccc23)CN1C(=O)[C@@H](NC(=O)O[C@H]1CCOC1)C(C)(C)C)C(=O)NS(=O)(=O)C1CC1 [Compound 19],< 0.1,< 0.1,–,–
C=CC1CC1(NC(=O)C1CC(Oc2nccc3c(OC(F)F)cccc23)CN1C(=O)C(NC(=O)OC(C)(C)C)C(C)(C)C)C(=O)NS(=O)(=O)C1CC1 (stereo not drawn) [Compound 285],< 0.1,< 0.1,–,–
C=CC1CC1(NC(=O)[C@@H]1C[C@@H](Oc2cc(C(F)(F)F)nc3ccc(F)cc23)CN1C(=O)[C@@H](NC(=O)OC(C)(C)C)C(C)(C)C)C(=O)NS(=O)(=O)C1CC1 (stereo partly drawn) [Compound 450],< 0.1,0.1 to 1,–,–
